The values below come from patent publication US9040578B2, “Continuous administration of L-dopa, dopa decarboxylase inhibitors, catechol-O-methyl transferase inhibitors and compositions for same” (Neuroderm, Ltd., priority 2010, dated 2015).

The nature of series [1]: Titration with acetic or lactic acid: pH and physical stability (Table D). The series is classed as physicochemical.
Series [2] deals with T1, Tyrosinase (Homo sapiens, UniProt P14679).
T1 sequence (P14679 19-529): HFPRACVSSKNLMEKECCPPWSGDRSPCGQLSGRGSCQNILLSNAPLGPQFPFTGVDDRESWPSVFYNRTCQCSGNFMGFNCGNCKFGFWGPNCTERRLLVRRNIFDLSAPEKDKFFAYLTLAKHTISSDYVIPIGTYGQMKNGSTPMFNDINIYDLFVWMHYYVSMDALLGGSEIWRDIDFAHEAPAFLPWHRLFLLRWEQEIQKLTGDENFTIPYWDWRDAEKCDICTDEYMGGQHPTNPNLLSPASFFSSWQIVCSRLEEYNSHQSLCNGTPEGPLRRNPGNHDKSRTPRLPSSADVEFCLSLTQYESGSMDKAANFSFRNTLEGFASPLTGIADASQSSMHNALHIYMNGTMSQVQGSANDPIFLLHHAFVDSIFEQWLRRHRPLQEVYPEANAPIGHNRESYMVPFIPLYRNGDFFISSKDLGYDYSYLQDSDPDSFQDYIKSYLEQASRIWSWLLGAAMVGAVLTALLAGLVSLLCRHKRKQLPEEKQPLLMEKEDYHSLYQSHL
As to conditions: tyrosinase inhibitor; cited from earlier work.

Series [3] is described as follows: Histological score of subcutaneous toxicity after 24 h continuous SC LD/CD. The format is in vivo, Pigs. As to conditions: 0.2% added to LD/CD 5.4/1.5% + 1% ascorbate.
The conditions of series [4]: cited from earlier work; for Solubility: in words; for pH compatibility: check mark.
The nature of series [5]: Stability of carbidopa formulations with levodopa (Table H). The format is physicochemical. An excerpt: The effect of levodopa on the stability of carbidopa was investigated. Table H indicates results.
The nature of series [6]: Chemical stability of levodopa formulations with carbidopa (Tables F, G). As to conditions: Table F. The format is physicochemical. The protocol: The effect of carbidopa on levodopa formulations was investigated. Levodopa (LD) formulations were prepared with 0, 0.5, 1, 1.5 & 2% by weight carbidopa (CD) and a constant concentration of arginine.
In an additional experiment, LD formulations were prepared with 0, 0.5, 1 & 2% CD and respective concentrations of arginine.

Series [7] can be described thus: Colour formation of levodopa/arginine solutions in vitro (FIG. 1A). The series is classed as physicochemical. The protocol: FIG. 1 depicts the effect of carbidopa on the stability of levodopa In Vitro and Ex Vivo: A. 6% weight levodopa and arginine solution with various concentrations (2, 1.5, 1, 0.5%) of carbidopa or no carbidopa were tested for physical stability in vitro. […] B. 7% weight percent levodopa and arginine solution, with or without 2% carbidopa by weight, continuously administered in to the subcutaneous tissue of a 5×5 cm fresh, full-thickness pig skin.
In the absence of air (with N2 in the head space) 0.5% CD was sufficient to inhibit this color formation.

Take `O=C1O[C@H]([C@@H](O)CO)C(O)=C1O` [Ascorbic acid]: the “reduction of pH as compared to Na-ascorbate” value in series [1] is recorded as 0.1-0.15 units.
With `C[C@H](CS)C(=O)N1CCC[C@H]1C(=O)O` [Captopril], the Min required concentration in series [2] was 0.04 mg/mL. Moreover, the “protection from local toxicity compared to 1% ascorbate alone” value in series [3] is reported as “did not have a supplementary effect”. Also, the Solubility entry in series [4] is recorded as “Soluble”.
Take `O=C(O)[C@@H](S)[C@@H](S)C(=O)O` [DMSA (succimer)]: in series [4], the Solubility entry is reported as “Soluble”.
Consider `CC(C)(S)[C@@H](N)C(=O)O` [DPA (D-penicillamine), D-penicillamine], for which, in series [4], the Solubility entry is reported as “Soluble”.
As to `O=C([O-])CN(CCN(CC(=O)[O-])CC(=O)[O-])CC(=O)[O-].[Ca+2].[Na+].[Na+]` [EDTA calcium disodium], in series [3], the “protection from local toxicity compared to 1% ascorbate alone” value was “did not have a supplementary effect”. In addition, in series [4], the pH compatibility entry is “√”.
Regarding `O=C([O-])CN(CCN(CC(=O)[O-])CC(=O)O)CC(=O)O.[Na+].[Na+]` [EDTA disodium], the pH compatibility entry in series [4] is reported as “√”.
On to `N[C@@H](CS)C(=O)O` [L-Cysteine], for which, in series [4], the Solubility entry is given as “Soluble”.
For the compound `Cn1cc[nH]c1=S` [Methimazole], the Solubility result in series [4] is recorded as “Soluble”.
Regarding `C[C@@](Cc1ccc(O)c(O)c1)(NN)C(=O)O` [carbidopa], in series [5], the “sensitivity of CD to oxidation and degradation” value was “more stable in the presence of LD”. For the same compound, the “effect on the chemical stability of levodopa” value in series [6] is on record as “does not have a significant effect”. Moreover, the “dark yellow color formation” value in series [7] (6% levodopa/arginine solution, in the presence of air, dose related) was “prevented dark yellow color formation”. Further, in series [7] (absence of air (N2 in the head space)), the “carbidopa concentration sufficient to inhibit color formation” value came to 0.5%.
